Paper PMC12389355, “Physiologically Based Pharmacokinetic Modeling to Assess Perpetrator and Victim Cytochrome P450 2C Induction Risk” (Pharmaceutics, 2025)

Legend:
CYP3A4 [1] = experiment: in vitro; settings: human
CYP2C9 [2] = experiment: in vitro; settings: human
CYP2B6 [3] = experiment: in vitro; settings: human
CYP2C9 [4] = experiment: in vitro; settings: human, probe diclofenac (4-hydroxy diclofenac formation)
CYP2C8 = CYP2C8 mRNA induction in HTC model
CYP2C9 [5] = experiment: CYP2C9 mRNA induction in HTC model
CYP2B6 [6] = experiment: CYP2B6 mRNA induction in HTC model
CYP2C19 [7] = experiment: CYP2C19 mRNA induction in HTC model
CYP3A4 [8] = experiment: CYP3A4 mRNA induction in human hepatocyte triculture (HTC) model
CYP3A4 [9] = experiment: CYP3A4 enzyme activity induction in HTC model (midazolam 1-hydroxylation)
CYP2C9 [10] = experiment: CYP2C9 enzyme activity induction in HTC model (diclofenac 4-hydroxylation)
CYP2C19 [11] = experiment: CYP2C19 enzyme activity induction in HTC model (omeprazole 5-hydroxylation)
Other CYPs = settings: victim drug; ref [35],[36]; cited from earlier work
[12] = victim drug after administration with rifampicin; References of Table 4 ([27]-[43]), DIDB; cited from earlier work

## O=C1Nc2ccc(Cl)cc2[C@@](C#CC2CC2)(C(F)(F)F)O1 [Efavirenz, efavirenz]
CYP3A4 [1]
  EC50 at 96 h: […]
CYP2C9 [2]
  EC50 at 96 h: […]
CYP2B6 [3]
  EC50 at 96 h: […]
CYP2C9 [4]
  EC50 at 96 h: 4.29 µM
CYP2C8; Donor 1
  EC50: 4.48 µM
CYP2C8; Donor 2
  EC50: 1.97 µM
CYP2C8; Donor 3
  EC50: 2.95 µM
CYP2C9 [5]; Donor 1
  Emax Fold: […]
CYP2C9 [5]; Donor 2
  Emax Fold: […]
CYP2C9 [5]; Donor 3
  Emax Fold: […]
CYP2B6 [6]; Donor 1
  Emax Fold: […]
CYP2B6 [6]; Donor 2
  EC50: […]
  Emax Fold: […]
CYP2B6 [6]; Donor 3
  EC50: […]
  Emax Fold: […]
CYP2C19 [7]; Donor 1
  EC50: […]
  Emax Fold: […]
CYP2C19 [7]; Donor 2
  Emax Fold: […]
CYP2C19 [7]; Donor 3
  EC50: 2.91 µM
CYP3A4 [8]; Donor 1
  Emax Fold: […]
CYP3A4 [8]; Donor 2
  EC50: […]
  Emax Fold: […]
CYP3A4 [8]; Donor 3
  EC50: […]
  Emax Fold: […]
CYP3A4 [9]; Donor 1
  EC50: […]
  Emax Fold: […]
CYP3A4 [9]; Donor 2
  EC50: […]
  Emax Fold: […]
CYP3A4 [9]; Donor 3
  EC50: […]
  Emax Fold: […]
CYP2C9 [10]; Donor 1
  Emax Fold: […]
CYP2C9 [10]; Donor 2
  Emax Fold: […]
CYP2C9 [10]; Donor 3
  Emax Fold: […]
CYP2C19 [11]; Donor 1
  EC50: […]
  Emax Fold: […]
CYP2C19 [11]; Donor 2
  EC50: 0.297 µM
CYP2C19 [11]; Donor 3
  EC50: […]
  Emax Fold: […]

## CCCCNC(=O)NS(=O)(=O)c1ccc(C)cc1 [Tolbutamide, tolbutamide]
Other CYPs
  fm Other CYPs: 0.15
[12]
  % AUC Reduction (Clinically Observed): 63.5%
